Here are results for nine compounds from BindingDB's records for doi:10.1021/bi9007287 (Max Planck Research, 2009).

In assay [1] the target is Peptidyl-prolyl cis-trans isomerase A (Homo sapiens, UniProt P62937). The assay is described as follows: PPIase Assay. The settings on record: pH 7.8; 5 °C.
Assay [2] deals with Peptidyl-prolyl cis-trans isomerase B (Human, UniProt P23284). Kind of assay: PPIase Assay. The settings on record: pH 7.8; 5 °C.
Assay [3] deals with T1, Peptidyl-prolyl cis-trans isomerase-like 1 (Homo sapiens, UniProt Q9Y3C6).
T1 sequence (Q9Y3C6 whole entry): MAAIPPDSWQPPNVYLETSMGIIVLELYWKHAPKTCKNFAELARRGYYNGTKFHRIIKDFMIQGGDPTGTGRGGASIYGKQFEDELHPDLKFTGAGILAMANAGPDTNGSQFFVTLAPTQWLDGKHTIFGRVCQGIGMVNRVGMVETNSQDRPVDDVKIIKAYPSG
The assay is described as follows: PPIase Assay. The conditions noted are these: pH 7.8; 5 °C.

Assay [4] concerns the target Peptidyl-prolyl cis-trans isomerase H (Homo sapiens, UniProt O43447). Kind of assay: PPIase Assay. The conditions noted are these: pH 7.8; 5 °C.
The target in assay [5] is Peptidyl-prolyl cis-trans isomerase C (Mus musculus) (UniProt P30412). The assay is described as follows: PPIase activity assay were performed at 283 K in quartz cuvettes with a path length of 1 cm under vigorous stirring with a Hewlett-Packard 8453A UV-vis spectrophotometer in 35 mM HEPES buffer (pH 7.8).
Peptidyl-prolyl cis-trans isomerase C (Mus musculus), sequence (P30412 whole entry, looked up): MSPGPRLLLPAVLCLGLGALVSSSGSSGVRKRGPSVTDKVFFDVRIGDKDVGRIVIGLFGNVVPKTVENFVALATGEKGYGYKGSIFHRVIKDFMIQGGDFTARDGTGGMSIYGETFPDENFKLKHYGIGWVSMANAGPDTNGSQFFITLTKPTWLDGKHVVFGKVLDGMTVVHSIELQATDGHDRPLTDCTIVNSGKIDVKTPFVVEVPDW

Peptidyl-prolyl cis-trans isomerase A, sequence (P62937 whole entry): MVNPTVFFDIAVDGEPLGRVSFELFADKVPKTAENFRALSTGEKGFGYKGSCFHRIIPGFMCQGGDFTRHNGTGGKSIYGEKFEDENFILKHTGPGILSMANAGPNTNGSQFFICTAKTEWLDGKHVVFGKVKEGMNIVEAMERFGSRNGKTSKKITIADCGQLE
Peptidyl-prolyl cis-trans isomerase B, sequence (P23284 whole entry): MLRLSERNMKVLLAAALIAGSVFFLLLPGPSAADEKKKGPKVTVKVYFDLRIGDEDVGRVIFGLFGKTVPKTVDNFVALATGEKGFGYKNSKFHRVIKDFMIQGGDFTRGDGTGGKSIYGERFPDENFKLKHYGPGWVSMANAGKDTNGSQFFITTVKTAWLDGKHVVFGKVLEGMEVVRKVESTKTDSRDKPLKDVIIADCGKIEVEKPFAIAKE
Peptidyl-prolyl cis-trans isomerase H, sequence (O43447 whole entry): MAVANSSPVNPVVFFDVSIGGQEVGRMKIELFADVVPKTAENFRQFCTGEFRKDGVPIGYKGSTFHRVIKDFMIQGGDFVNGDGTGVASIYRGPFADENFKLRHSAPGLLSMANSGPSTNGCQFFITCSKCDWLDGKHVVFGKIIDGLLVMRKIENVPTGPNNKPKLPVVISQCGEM

For `COc1ccc(C(F)(F)F)cc1C(=O)C1CCc2ccccc21` (centres undefined) [Aryl 1-indanylketone, 5], the inhibition constant Ki in assay [1] was 10 µM; in assay [2], above 100 µM.

Take `COc1ccc2c(c1)C(=O)C1(Cc3ccccc3C1)O2` [Benzofuranone, 9]: the Ki is above 100 µM in assay [1] and 63 µM in assay [2].

For `Nc1cc(F)cc(-c2ccc(O)c(C(=O)C3CCc4ccccc43)c2)c1O` (centres undefined) [Aryl 1-indanylketone, 2], the Ki in assay [1] was 0.3 µM; in assay [2] it was 12 µM; in assay [3], above 100 µM; in assay [4], above 100 µM; in assay [5], above 100 µM.

On to `O=C1Oc2ccccc2C12Cc1ccccc1C2` [Benzofuranone, 8], for which the Ki in assay [1] and in assay [2] was above 100 µM throughout.

For `COc1ccc(F)cc1C(=O)C1(C)CCc2ccccc21` (centres undefined) [Aryl 1-indanylketone, 6], the Ki in assay [1] and in assay [2] was above 100 µM in each case.

`O=C(c1cc(-c2cc(F)cc([N+](=O)[O-])c2O)cc([N+](=O)[O-])c1O)C1CCc2ccccc21` (centres undefined) [Aryl 1-indanylketone, 1]: the Ki in assay [1] is 0.52 µM; in assay [2] it was above 100 µM; in assay [3] it was 29 µM; in assay [4] it was above 100 µM; in assay [5], above 100 µM.

Consider `COc1ccc(F)cc1-c1cc(N)c(O)c(C(=O)C2CCc3ccccc32)c1` (centres undefined) [Aryl 1-indanylketone, 3], for which the figures for the Ki in assay [1] and in assay [2] were 1.7 µM and 8.6 µM, respectively.

Consider `COc1ccc(-c2ccc(OC(F)(F)F)cc2)cc1C(=O)C1CCc2ccccc21` (centres undefined) [Aryl 1-indanylketone, 4], for which the Ki in assay [1] worked out at 1.2 µM; in assay [2] it was 2.1 µM.

Turning to `COc1ccc2c(c1)C1(CC(C)c3ccccc31)C(=O)O2` (centres undefined) [Benzofuranone, 7], the Ki in assay [1] was 21 µM; in assay [2], above 100 µM.

For orientation: Ki means a measure of affinity in units of concentration, obtained from inhibition or displacement. Low values mean a stronger hold on the target, high ones a looser hold on the target.
